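96-well plates; 48 h exposure; 5 concentrations. Endpoints by linear interpolation between flanking doses. Not reached: highest tested concentration assigned. GI50 marks 50% less growth.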 Activity calls are given as the source filed them. No stated cut-off is given here; in the data, active = GI50 up to about 1.1 µM and inactive = higher.
How the values were obtained:
Test in all cases: growth of human tumour cells (NCI), 48 h
K562 = system: K562
SF-539 = system: SF-539
KM12 = system: KM12
OVCAR-4 = system: OVCAR-4
SR = system: SR
T47D = system: T47D
SNB-19 = system: SNB-19
OVCAR-8 = system: OVCAR-8
CCRF-CEM = system: CCRF-CEM
IGROV-1 = system: IGROV-1
UACC-62 = system: UACC-62
TK-10 = system: TK-10
M14 = system: M14
HL-60 = system: HL-60
MDA-N = system: MDA-N
DU-145 = system: DU-145
NCI/ADR-RES = system: NCI/ADR-RES
RPMI-8226 = system: RPMI-8226
SK-MEL-2 = system: SK-MEL-2

Measured: GI50

CC1=CC(C/C(C)=C/COc2ccc3ccc(=O)oc3c2)OC1=O (stereo not drawn)
inactive: K562 59.8 µM | SF-539 > 100 µM | KM12 > 100 µM | OVCAR-4 > 100 µM | SR 95.1 µM | T47D > 100 µM | SNB-19 > 100 µM | OVCAR-8 > 100 µM | CCRF-CEM > 100 µM | IGROV-1 > 100 µM | UACC-62 > 100 µM | TK-10 > 100 µM | M14 > 100 µM | HL-60 59.4 µM | MDA-N 68.9 µM | DU-145 > 100 µM | NCI/ADR-RES 27.4 µM

c1ccc(-c2cc(-c3cccs3)c(-c3cccs3)s2)cc1
inactive: SF-539 > 100 µM | KM12 14.9 µM | OVCAR-4 14.3 µM | SR 18.9 µM | T47D 4.5 µM | OVCAR-8 > 100 µM | CCRF-CEM 23.7 µM | IGROV-1 > 100 µM | UACC-62 > 100 µM | TK-10 32.2 µM | RPMI-8226 31.8 µM | M14 18.9 µM | HL-60 25.5 µM | MDA-N 14.6 µM | DU-145 64 µM | NCI/ADR-RES 41.4 µM

CC[C@@H]1CC[C@@H]2[C@H](CC[C@]3(C)[C@@H](OS(=O)(=O)c4ccc(C)cc4)CC[C@@H]23)[C@H]1CO
inactive: K562 69.2 µM | SF-539 81.5 µM | KM12 > 100 µM | OVCAR-4 > 100 µM | SR > 100 µM | T47D 29.2 µM | SNB-19 > 100 µM | OVCAR-8 > 100 µM | CCRF-CEM > 100 µM | IGROV-1 > 100 µM | TK-10 > 100 µM | RPMI-8226 17 µM | M14 87.3 µM | HL-60 17.8 µM | MDA-N > 100 µM | DU-145 > 100 µM | NCI/ADR-RES > 100 µM

COC(=O)c1ccc(/C=C2\Oc3cc(O)ccc3C2=O)cc1
inactive: K562 47.8 µM | SF-539 > 100 µM | KM12 49.3 µM | OVCAR-4 62.8 µM | SR 42.3 µM | T47D 54.3 µM | SNB-19 69.8 µM | OVCAR-8 61.5 µM | CCRF-CEM 38.2 µM | IGROV-1 > 100 µM | UACC-62 > 100 µM | TK-10 53 µM | RPMI-8226 29.4 µM | M14 83.8 µM | HL-60 44.2 µM | MDA-N 67.3 µM | DU-145 > 100 µM | NCI/ADR-RES > 100 µM

O=C1/C(=C/c2ccccc2S)N=C(c2ccccc2)N1c1ccc2c(c1)Sc1cc(N3C(=O)/C(=C/c4ccccc4S)N=C3c3ccccc3)ccc1N2
inactive: K562 22 µM | SF-539 11.8 µM | KM12 34 µM | SK-MEL-2 23.8 µM | OVCAR-4 32.6 µM | SR 15.7 µM | T47D 22.7 µM | SNB-19 16.7 µM | OVCAR-8 19.4 µM | CCRF-CEM 15.2 µM | IGROV-1 15.7 µM | UACC-62 20.1 µM | TK-10 17.4 µM | RPMI-8226 19 µM | M14 17.9 µM | MDA-N 23.8 µM | DU-145 19.2 µM | NCI/ADR-RES 35.5 µM

COC(=O)C1(Cc2ccc3c(c2)CCC3)Cc2ccc3c(c2C1)CCC3 (stereo not drawn)
inactive: K562 85.5 µM | SF-539 37.9 µM | KM12 17.7 µM | OVCAR-4 17.2 µM | SR > 10 µM | T47D 1.47 µM | OVCAR-8 32.1 µM | CCRF-CEM 70.6 µM | IGROV-1 21.1 µM | UACC-62 32 µM | TK-10 49.7 µM | RPMI-8226 19.4 µM | HL-60 23.4 µM | MDA-N 13.2 µM | DU-145 24.8 µM | NCI/ADR-RES 20.6 µM

O=C(NCCCCCCCCNC(=O)c1cc(-c2ccccc2)nc2ccccc12)c1cc(-c2ccccc2)nc2ccccc12
inactive: K562 > 100 µM | SF-539 71.1 µM | OVCAR-4 > 100 µM | SR > 100 µM | T47D > 100 µM | SNB-19 64.9 µM | OVCAR-8 94 µM | CCRF-CEM > 100 µM | IGROV-1 > 100 µM | UACC-62 > 100 µM | TK-10 > 100 µM | RPMI-8226 > 100 µM | M14 > 100 µM | HL-60 > 100 µM | MDA-N > 100 µM | DU-145 > 100 µM | NCI/ADR-RES > 100 µM

COc1cccc2c1OC1c3ccccc3OCC1C2 (stereo not drawn)
inactive: K562 > 100 µM | SF-539 > 100 µM | KM12 > 100 µM | SK-MEL-2 > 100 µM | SR > 100 µM | T47D 44.1 µM | OVCAR-8 > 100 µM | CCRF-CEM 42.8 µM | IGROV-1 41.1 µM | UACC-62 > 100 µM | TK-10 43.9 µM | RPMI-8226 > 100 µM | M14 > 100 µM | MDA-N > 100 µM | DU-145 > 100 µM | NCI/ADR-RES 34.6 µM

COc1cc2c(cc1OC)C(=O)C1(C2)[C@H](c2ccccc2)C2C(=O)c3cc(OC)c(OC)cc3C2[C@H]1c1ccccc1 (stereo partly drawn)
inactive: K562 > 100 µM | SF-539 > 100 µM | KM12 > 100 µM | OVCAR-4 > 100 µM | SR > 100 µM | T47D 10.5 µM | SNB-19 > 100 µM | OVCAR-8 > 100 µM | CCRF-CEM > 100 µM | IGROV-1 > 100 µM | UACC-62 > 100 µM | TK-10 > 100 µM | RPMI-8226 > 100 µM | M14 > 100 µM | HL-60 > 100 µM | MDA-N > 100 µM | DU-145 > 100 µM | NCI/ADR-RES > 100 µM

CN(Cc1cnc2nc(N)nc(N)c2n1)c1ccc(C(=O)NCCCS(=O)(=O)O)cc1
inactive: K562 > 100 µM | SF-539 > 100 µM | KM12 > 100 µM | SK-MEL-2 > 100 µM | OVCAR-4 > 100 µM | SR 37.6 µM | T47D > 100 µM | SNB-19 > 100 µM | OVCAR-8 > 100 µM | IGROV-1 > 100 µM | UACC-62 > 100 µM | TK-10 > 100 µM | RPMI-8226 > 100 µM | M14 > 100 µM | MDA-N > 100 µM | DU-145 > 100 µM | NCI/ADR-RES > 100 µM

CC(C)=CCC/C(C)=C/CC/C(C)=C/CSc1ccc(Cl)cc1C(=O)O
inactive: K562 25.5 µM | SF-539 18.9 µM | KM12 17 µM | SK-MEL-2 15 µM | OVCAR-4 27.7 µM | T47D > 10 µM | SNB-19 18.4 µM | OVCAR-8 20 µM | CCRF-CEM 21.2 µM | IGROV-1 17.5 µM | UACC-62 17.9 µM | TK-10 19.2 µM | RPMI-8226 22.6 µM | M14 19.6 µM | HL-60 22.2 µM | MDA-N 29.4 µM | DU-145 23.9 µM | NCI/ADR-RES > 10 µM
